Measurements as given in patent publication US9963452B2, “Methods, compounds, and compositions for inhibition of ROS” (AUGUSTA PHARMACEUTICALS INC., priority 2013, dated 2018).

Legend:
ROS = ROS (Homo sapiens, UniProt P08922); experiment: In vitro ROS enzymatic reaction assay (HTRF, Cisbio); assay type: biochemical; parameters: ROS or EGFR enzyme, 0.008 ng/ul; conditions: for inhibition at 5 µM: ROS kinase, compound at 5 uM, read-out: Kinase Inhib. 5 uM (%)
Protocol: The ROS enzymatic reactions were carried out with a high throughput screening platform for phosphor-detection of kinase activity. This platform based on homogeneous time resolved fluorescence (HTRF) technology from Cisbio Bioassays, Inc. (Cisbio). […] The reaction was allowed to proceed for 30 minutes at room temperature. An equal volume of detection buffer was then added to the reaction mix.

EGFR = biological target: T1, EGFR (Homo sapiens, UniProt P00533); experiment: In vitro EGFR enzymatic reaction assay (HTRF, Cisbio); assay type: biochemical
T1 construct: ROS or EGFR enzyme, 0.008 ng/ul
T1 sequence (P00533 25-1210, species assumed): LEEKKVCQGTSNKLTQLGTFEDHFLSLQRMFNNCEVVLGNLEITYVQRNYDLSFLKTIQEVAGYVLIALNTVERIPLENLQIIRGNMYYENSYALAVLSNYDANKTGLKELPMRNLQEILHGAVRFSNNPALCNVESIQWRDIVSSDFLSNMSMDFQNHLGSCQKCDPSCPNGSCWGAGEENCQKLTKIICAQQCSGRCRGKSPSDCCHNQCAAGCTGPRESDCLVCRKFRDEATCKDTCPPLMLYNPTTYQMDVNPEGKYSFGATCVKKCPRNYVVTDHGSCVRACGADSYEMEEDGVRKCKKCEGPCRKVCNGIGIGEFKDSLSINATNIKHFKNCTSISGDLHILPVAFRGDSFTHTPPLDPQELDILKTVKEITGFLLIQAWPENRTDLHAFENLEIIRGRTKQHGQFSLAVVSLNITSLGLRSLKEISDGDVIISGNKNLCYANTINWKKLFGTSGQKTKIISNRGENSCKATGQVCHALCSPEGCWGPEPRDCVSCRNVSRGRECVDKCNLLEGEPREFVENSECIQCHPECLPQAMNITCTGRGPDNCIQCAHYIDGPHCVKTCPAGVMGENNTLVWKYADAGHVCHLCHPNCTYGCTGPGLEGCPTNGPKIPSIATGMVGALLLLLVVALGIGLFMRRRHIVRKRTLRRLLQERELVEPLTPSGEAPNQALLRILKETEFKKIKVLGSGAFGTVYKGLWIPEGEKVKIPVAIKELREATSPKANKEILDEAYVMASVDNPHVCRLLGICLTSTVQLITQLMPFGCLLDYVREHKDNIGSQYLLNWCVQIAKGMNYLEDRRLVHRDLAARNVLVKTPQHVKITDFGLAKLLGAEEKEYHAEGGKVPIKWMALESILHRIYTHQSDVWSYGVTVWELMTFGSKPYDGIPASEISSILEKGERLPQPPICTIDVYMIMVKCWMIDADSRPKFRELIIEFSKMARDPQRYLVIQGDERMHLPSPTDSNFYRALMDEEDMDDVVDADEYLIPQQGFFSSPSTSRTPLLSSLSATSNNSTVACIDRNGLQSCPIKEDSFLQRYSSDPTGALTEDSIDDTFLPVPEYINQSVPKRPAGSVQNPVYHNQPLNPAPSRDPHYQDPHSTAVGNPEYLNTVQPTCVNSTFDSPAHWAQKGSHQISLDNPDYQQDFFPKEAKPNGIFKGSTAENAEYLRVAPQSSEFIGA

[1] = test system: U138 glioblastoma cell line; experiment: In-vitro cell survival assay (Alamar blue), U138; assay type: cell-based; conditions: U138, one day after compound addition
Summary of the method: (§1)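 Cells seeded at 2-5×10^3 per well, grown 2 days, then exposed to compound at 100, 10 or 1 uM (0.5% DMSO final) for one day. Alamar blue redox dye read as proliferation/viability, normalized to vehicle wells as percent decrease and converted to EC50.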

[2] = test system: U87 glioblastoma cell line; experiment: In-vitro cell survival assay (Alamar blue), U87; assay type: cell-based; conditions: U87, one day after compound addition
Summary of the method: as §1

[3] = test system: U118 glioblastoma cell line; experiment: In-vitro cell survival assay (Alamar blue), U118; assay type: cell-based; conditions: U118, one day after compound addition
Protocol: Five tumor-derived cell lines were treated with the ROS inhibitor compounds and cell survival was monitored to determine the cancer prohibition effects of the compounds. The cell lines included HeLa, a cervical cancer cell line, and four glioblastoma cell lines U138, U87, LN18, and U118. The basic protocol for the in-vitro cell survival assay is the same for all five cell lines. In particular, the cells were seeded in 96-well plates at 2-5×10^3 cells/well (cell line dependent) in culture medium. The cells were grown for 2 days before the compounds were dissolved in DMSO and added to final concentrations of 100 uM, 10 uM, or 1 uM (DMSO final concentration 0.5%). The cell culture was then assayed one day after the addition of the compounds. The assay used Alamar blue as a redox-sensitive dye that interrogates mitochondrial fitness of cells, and these assays provided a readout for cell proliferation and viability. The raw values were normalized to an average of several vehicle control wells and are presented as percent decrease in proliferation/viability, which is converted to half maximal effective concentration (EC50) values.

[4] = test system: LN18 glioblastoma cell line; experiment: In-vitro cell survival assay (Alamar blue), LN18; assay type: cell-based; conditions: LN18, one day after compound addition
Summary of the method: as §1

[5] = test system: HeLa cervical cancer cell line; experiment: In-vitro cell survival assay (Alamar blue), HeLa; assay type: cell-based; conditions: one day after compound addition
Summary of the method: as §1

Sequence of ROS (P08922 28-2347): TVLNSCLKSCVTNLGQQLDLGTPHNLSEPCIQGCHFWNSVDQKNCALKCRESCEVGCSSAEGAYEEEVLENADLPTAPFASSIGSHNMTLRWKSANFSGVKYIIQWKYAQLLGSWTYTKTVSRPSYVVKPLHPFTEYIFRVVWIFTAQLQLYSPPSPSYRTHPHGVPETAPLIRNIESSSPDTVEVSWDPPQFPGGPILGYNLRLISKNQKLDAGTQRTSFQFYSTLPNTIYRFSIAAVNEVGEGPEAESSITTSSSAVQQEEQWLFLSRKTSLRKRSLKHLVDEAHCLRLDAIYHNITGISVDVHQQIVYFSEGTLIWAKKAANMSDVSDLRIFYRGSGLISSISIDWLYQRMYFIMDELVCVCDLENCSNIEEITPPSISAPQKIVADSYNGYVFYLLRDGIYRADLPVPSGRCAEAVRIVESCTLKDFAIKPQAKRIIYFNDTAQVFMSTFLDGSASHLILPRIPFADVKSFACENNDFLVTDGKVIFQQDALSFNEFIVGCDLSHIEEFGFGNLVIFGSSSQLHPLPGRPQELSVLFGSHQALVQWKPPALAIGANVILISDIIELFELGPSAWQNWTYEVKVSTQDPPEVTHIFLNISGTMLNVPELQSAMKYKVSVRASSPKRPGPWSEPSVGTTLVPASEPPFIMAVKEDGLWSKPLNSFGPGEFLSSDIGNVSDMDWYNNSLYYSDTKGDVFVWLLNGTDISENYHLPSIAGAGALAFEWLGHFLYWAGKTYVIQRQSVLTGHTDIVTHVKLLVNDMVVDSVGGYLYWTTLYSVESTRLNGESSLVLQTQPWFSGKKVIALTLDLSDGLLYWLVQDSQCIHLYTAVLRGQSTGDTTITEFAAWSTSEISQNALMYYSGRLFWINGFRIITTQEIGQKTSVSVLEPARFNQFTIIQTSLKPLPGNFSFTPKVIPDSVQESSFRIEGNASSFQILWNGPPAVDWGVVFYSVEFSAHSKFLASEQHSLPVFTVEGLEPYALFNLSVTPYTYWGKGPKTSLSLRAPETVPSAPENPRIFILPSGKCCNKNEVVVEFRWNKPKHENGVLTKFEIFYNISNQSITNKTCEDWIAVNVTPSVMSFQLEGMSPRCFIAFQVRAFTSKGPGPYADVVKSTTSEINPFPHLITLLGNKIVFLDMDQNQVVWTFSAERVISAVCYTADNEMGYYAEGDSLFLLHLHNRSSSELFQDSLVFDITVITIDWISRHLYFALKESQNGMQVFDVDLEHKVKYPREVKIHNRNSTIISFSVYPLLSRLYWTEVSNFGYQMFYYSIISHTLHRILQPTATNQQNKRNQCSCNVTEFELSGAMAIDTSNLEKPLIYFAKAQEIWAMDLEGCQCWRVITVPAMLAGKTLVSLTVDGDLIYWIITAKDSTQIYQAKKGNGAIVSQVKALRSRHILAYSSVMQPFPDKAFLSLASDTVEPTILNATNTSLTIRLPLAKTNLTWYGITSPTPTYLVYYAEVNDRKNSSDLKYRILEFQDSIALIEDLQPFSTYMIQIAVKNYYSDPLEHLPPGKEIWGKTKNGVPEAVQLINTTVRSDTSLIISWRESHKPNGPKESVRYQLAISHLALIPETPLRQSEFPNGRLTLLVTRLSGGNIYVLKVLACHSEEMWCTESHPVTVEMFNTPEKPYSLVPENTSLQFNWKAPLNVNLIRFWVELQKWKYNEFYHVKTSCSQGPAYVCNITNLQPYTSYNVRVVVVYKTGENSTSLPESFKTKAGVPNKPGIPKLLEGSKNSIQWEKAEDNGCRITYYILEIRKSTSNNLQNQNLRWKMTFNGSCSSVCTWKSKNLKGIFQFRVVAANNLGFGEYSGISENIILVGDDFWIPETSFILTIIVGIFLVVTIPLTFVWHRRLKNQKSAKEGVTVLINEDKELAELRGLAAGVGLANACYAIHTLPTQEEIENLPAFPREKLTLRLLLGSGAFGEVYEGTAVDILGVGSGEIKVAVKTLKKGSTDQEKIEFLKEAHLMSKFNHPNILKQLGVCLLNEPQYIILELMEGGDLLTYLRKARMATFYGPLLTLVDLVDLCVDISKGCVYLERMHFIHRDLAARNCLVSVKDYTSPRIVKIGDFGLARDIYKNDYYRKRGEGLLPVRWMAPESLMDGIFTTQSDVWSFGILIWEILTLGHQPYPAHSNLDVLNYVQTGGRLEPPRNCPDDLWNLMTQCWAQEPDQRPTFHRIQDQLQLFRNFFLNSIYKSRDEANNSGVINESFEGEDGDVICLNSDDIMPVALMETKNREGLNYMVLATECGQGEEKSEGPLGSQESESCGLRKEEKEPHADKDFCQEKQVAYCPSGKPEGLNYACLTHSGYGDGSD

IC50 (ROS) [µM]	inhibition at 5 µM (ROS) [%]	IC50 (EGFR) [µM]	Structure (SMILES)	EC50 ([1]; 24 h) [µM]	EC50 ([2]; 24 h) [µM]	EC50 ([3]; 24 h) [µM]	EC50 ([4]; Homo sapiens, LN-18, 24 h) [µM]	EC50 ([5]; Homo sapiens, 24 h) [µM]	also measured
0.042	100	4.6	c1cc(Nc2nccc(Nc3ccc4ncsc4c3)n2)cc(C2CCNCC2)c1 [drawing 303]						
0.037	101	2.4	O=C(O)c1ccc(Nc2ncc(Cl)c(Nc3ccc4ncsc4c3)n2)cc1 [drawing 308]						
0.405	92.2	> 5	CN1CCN(C(=O)c2ccc(Nc3ncc(Cl)c(Nc4ccc5ncsc5c4)n3)cc2)CC1 [drawing 307]						
2.1	38.4	> 50	Clc1nccc(Nc2cc(C3CC3)[nH]n2)n1 [drawing 298]						
1.01	100	> 5	O=C(NCC1CCNCC1)c1ccc(Nc2ncc(Cl)c(Nc3ccc4ncsc4c3)n2)cc1 [drawing 331]						
0.24	100	> 5	O=C(c1cccc(Nc2ncc(Cl)c(Nc3ccc4ncsc4c3)n2)c1)N1CCCCC1 [drawing 328]						
0.444	100	> 5	NC1CCN(C(=O)c2ccc(Nc3ncc(Cl)c(Nc4ccc5ncsc5c4)n3)cc2)CC1 [drawing 327]						
0.045	100	18.9	Nc1ccc(Nc2nccc(Nc3cc(C4CC4)[nH]n3)n2)cc1 [drawing 299]						
0.11	100	> 5	NCC1CCN(C(=O)c2cccc(Nc3ncc(Cl)c(Nc4ccc5ncsc5c4)n3)c2)CC1 [drawing 333]						
0.165	100	> 5	NC1CCN(C(=O)c2cccc(Nc3ncc(Cl)c(Nc4ccc5ncsc5c4)n3)c2)CC1 [drawing 332]						
0.017	90	> 5	Brc1cccc(Nc2nccc(Nc3ccc4ncsc4c3)n2)c1 [drawing 305]						
> 5	29.4	> 5	CC(C)(C)OC(=O)NC1CCN(C(=O)c2ccc(Nc3ncc(Cl)c(Nc4ccc5ncsc5c4)n3)cc2)CC1 [drawing 309]						
0.048	101	4.7	Nc1cccc(C2CCN(c3nccc(Nc4ccc5ncsc5c4)n3)CC2)c1 [drawing 302]						
			Cc1cccc(Nc2nccc(Nc3cccc(C(=O)N(C)CCCN(C)C)c3)n2)c1 [drawing 425]	> 100	46	> 100	89	39	
			Cc1cccc(Nc2nccc(Nc3cccc(C(=O)NC4CCN(C)CC4)c3)n2)c1 [drawing 422]	20	18	60	5	25	
			CC(C)(CO)NC(=O)c1cccc(Nc2nccc(Nc3ccc4ncsc4c3)n2)c1 [drawing 408]	16	17	18	10	12	
0.189	100	> 5	O=C(O)c1cccc(Nc2ncc(Cl)c(Nc3ccc4ncsc4c3)n2)c1 [drawing 325]						
			Clc1ccc2nc(NCc3ccccn3)nc(-c3ccccc3)c2c1 [drawing 357]	> 100	71	> 100	16	> 100	
			O=c1c(O)c(-c2ccc(O)c(O)c2)oc2cc(O)cc(O)c12 [drawing 406]	> 100	36	33	24	21	
0.368	100	> 5	NCC1CCN(C(=O)c2ccc(Nc3ncc(Cl)c(Nc4ccc5ncsc5c4)n3)cc2)CC1 [drawing 326]						

IC50 (ROS) [µM]	inhibition at 5 µM (ROS) [%]	IC50 (EGFR) [µM]	Structure (SMILES)	EC50 ([1]; 24 h) [µM]	EC50 ([2]; 24 h) [µM]	EC50 ([3]; 24 h) [µM]	EC50 ([4]; Homo sapiens, LN-18, 24 h) [µM]	EC50 ([5]; Homo sapiens, 24 h) [µM]	also measured
			CC(=O)N[C@@H]1CCN(C(=O)c2cccc(Nc3cc(N(C)c4cccc(C)c4)ncn3)c2)C1 [drawing 378]	> 100	> 100	> 100	> 100	> 100	
			O=C(NCC1CCCCC1)c1cccc(Nc2nccc(Nc3ccc4ncsc4c3)n2)c1 [drawing 407]	> 100	33	> 100	87	> 100	
			O=C1NCCN1CCN1C(=O)c2ccccc2N[C@H]1c1ccccc1 [drawing 391]	> 100	> 100	38	36	> 100	
			O=C(NCc1ccc(F)cc1)c1cccc(Nc2nccc(Nc3ccc4ncsc4c3)n2)c1 [drawing 423]	18	11	24	9	6	
			O=C(NC[C@@H]1CCCO1)c1cccc(Nc2nccc(Nc3ccc4ncsc4c3)n2)c1	> 100	16	> 100	15	11	
			Cc1cccc(Nc2nccc(Nc3cccc(C(=O)Nc4ccc(F)cc4)c3)n2)c1 [drawing 382]	75	27	30	6	14	
			O=C(NCc1cccs1)c1cccc(Nc2nccc(Nc3ccc4ncsc4c3)n2)c1 [drawing 410]	26	25	23	11	9	
			O=C(NCC(c1cccs1)S(=O)(=O)c1ccc(F)cc1)c1ccccc1 (stereo not shown) [drawing 434]	> 100	30	54	21	77	
			Nc1nc(Nc2ccc(C(=O)NCCc3ccncc3)cc2)cc(Nc2ccc3ncsc3c2)n1 [drawing 417]	33	17	> 100	> 100	22	
			O=C(c1cccc(-c2noc(-c3n[nH]c4c3CCCC4)n2)c1)N1CCCCC1 [drawing 385]	83	14	83	62	> 100	
			O=C(NNc1nc2ccccc2nc1Cc1ccccc1)c1cccc(Cl)c1 [drawing 366]	> 100	25	> 100	22	> 100	
0.07	87.9	> 5	O=C(c1ccc(Nc2ncc(Cl)c(Nc3ccc4ncsc4c3)n2)cc1)N1CCCCC1 [drawing 306]						
			O=c1[nH][nH]c2nnc(-c3ccccc3)c(-c3ccccc3)c12 [drawing 394]						EC50 [1]: > 100 µM; EC50 [2]: 28 µM; EC50 [3]: > 100 µM; EC50 [4]: > 100 µM; EC50 [5]: > 100 µM
			O=C(NCc1ccco1)c1cccc(Nc2nccc(Nc3ccc4ncsc4c3)n2)c1 [drawing 376]	35	21	18	10	10	
			CC1=NNC(=O)/C1=C\c1cn(-c2ccccc2)nc1-c1ccccc1 [drawing 403]	8	8	7	12	20	
0.38	100	> 5	O=C(NCC1CCNCC1)c1cccc(Nc2ncc(Cl)c(Nc3ccc4ncsc4c3)n2)c1 [drawing 334]						
			Cc1cccc(Nc2nccc(Nc3cccc(C(=O)NCCCN4CCOCC4)c3)n2)c1 [drawing 416]	76	99	> 100	40	34	
			CCN(CCO)c1nc(Nc2ccc(F)cc2)c2cnn(-c3ccccc3)c2n1 [drawing 386]	57	10	58	7	54	
			O=C1NN=C(c2ccccc2)/C1=C1\OC(c2ccccc2)=CS1 [drawing 392]	> 100	37	27	17	23	
			Cc1ccc(Cn2c(NCc3nc4ccccc4n3C)nc3ccccc32)cc1 [drawing 355]	> 100	> 100	> 100	> 100	> 100	

Structure (SMILES)	IC50 (ROS) [µM]	inhibition at 5 µM (ROS) [%]	IC50 (EGFR) [µM]	EC50 ([1]; 24 h) [µM]	EC50 ([2]; 24 h) [µM]	EC50 ([3]; 24 h) [µM]	EC50 ([4]; Homo sapiens, LN-18, 24 h) [µM]	EC50 ([5]; Homo sapiens, 24 h) [µM]	also measured
COc1ccc(C2=CCNCC2)cc1Nc1nccc(Nc2ccc3ncsc3c2)n1 [drawing 330]	0.003	100	0.802						
C1=C(c2cccc(Nc3nccc(Nc4ccc5ncsc5c4)n3)c2)CCNC1 [drawing 304]	0.041	101	> 5						
